Results: paper PMC10882719 (Frontiers in Neuroscience, 2024)
Read-outs that look alike come from different tables or passages of the source.

How the values were obtained:
Type in all cases: cell-based
168 GPCRs [1] = molecular target: T1, 168 GPCRs (Homo sapiens, UniProt O14842)
T1 construct: host or cells: PathHunter cell lines

168 GPCRs [2] = molecular target: T2, 168 GPCRs (Homo sapiens, UniProt P21918)
T2 construct: host or cells: PathHunter cell lines

168 GPCRs [3] = molecular target: T3, 168 GPCRs (Homo sapiens, UniProt P30874); conditions: SSTR2
T3 construct: host or cells: PathHunter cell lines

168 GPCRs [4] = molecular target: T4, 168 GPCRs (Homo sapiens, UniProt P34972)
T4 construct: host or cells: PathHunter cell lines

168 GPCRs [5] = molecular target: T5, 168 GPCRs (Homo sapiens, UniProt P35368); conditions: ADRA1B
T5 construct: host or cells: PathHunter cell lines
T5 sequence (P35368 1-520): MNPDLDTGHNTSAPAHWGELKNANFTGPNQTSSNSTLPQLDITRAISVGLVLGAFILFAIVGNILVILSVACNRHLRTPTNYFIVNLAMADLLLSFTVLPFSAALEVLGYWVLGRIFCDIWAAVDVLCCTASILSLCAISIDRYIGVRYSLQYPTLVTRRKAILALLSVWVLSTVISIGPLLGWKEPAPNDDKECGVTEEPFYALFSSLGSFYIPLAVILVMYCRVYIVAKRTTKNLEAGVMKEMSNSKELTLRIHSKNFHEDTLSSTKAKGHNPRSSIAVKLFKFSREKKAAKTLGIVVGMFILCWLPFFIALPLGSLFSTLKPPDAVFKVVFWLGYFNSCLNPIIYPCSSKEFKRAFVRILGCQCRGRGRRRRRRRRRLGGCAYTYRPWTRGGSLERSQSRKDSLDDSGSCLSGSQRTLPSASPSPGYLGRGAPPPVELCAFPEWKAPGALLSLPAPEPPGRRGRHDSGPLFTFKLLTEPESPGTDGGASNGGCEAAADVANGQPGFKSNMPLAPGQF

168 GPCRs [6] = molecular target: T6, 168 GPCRs (Homo sapiens, UniProt P35462)
T6 construct: host or cells: PathHunter cell lines

168 GPCRs [7] = molecular target: T7, 168 GPCRs (Homo sapiens, UniProt P43220); conditions: GLP1R
T7 construct: host or cells: PathHunter cell lines

168 GPCRs [8] = molecular target: T8, 168 GPCRs (Homo sapiens, UniProt P49019); conditions: GPR109B
T8 construct: host or cells: PathHunter cell lines

168 GPCRs [9] = molecular target: T9, 168 GPCRs (Homo sapiens, UniProt Q16581)
T9 construct: host or cells: PathHunter cell lines
T9 sequence (Q16581 1-482): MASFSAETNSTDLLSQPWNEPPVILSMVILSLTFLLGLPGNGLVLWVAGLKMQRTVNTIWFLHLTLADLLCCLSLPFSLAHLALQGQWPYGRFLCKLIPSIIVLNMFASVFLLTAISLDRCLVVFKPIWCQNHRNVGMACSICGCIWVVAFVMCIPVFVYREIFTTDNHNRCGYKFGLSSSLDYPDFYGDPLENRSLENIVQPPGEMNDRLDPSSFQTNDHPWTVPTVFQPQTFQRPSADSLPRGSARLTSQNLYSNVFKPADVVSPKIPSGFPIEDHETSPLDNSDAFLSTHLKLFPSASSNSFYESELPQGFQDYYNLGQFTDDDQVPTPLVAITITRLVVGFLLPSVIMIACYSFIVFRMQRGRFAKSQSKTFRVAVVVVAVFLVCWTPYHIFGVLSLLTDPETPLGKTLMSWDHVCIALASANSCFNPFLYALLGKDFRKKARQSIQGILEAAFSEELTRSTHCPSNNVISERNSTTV

168 GPCRs [10] = molecular target: T10, 168 GPCRs (Homo sapiens, UniProt Q5NUL3)
T10 construct: host or cells: PathHunter cell lines
T10 sequence (Q5NUL3 1-361): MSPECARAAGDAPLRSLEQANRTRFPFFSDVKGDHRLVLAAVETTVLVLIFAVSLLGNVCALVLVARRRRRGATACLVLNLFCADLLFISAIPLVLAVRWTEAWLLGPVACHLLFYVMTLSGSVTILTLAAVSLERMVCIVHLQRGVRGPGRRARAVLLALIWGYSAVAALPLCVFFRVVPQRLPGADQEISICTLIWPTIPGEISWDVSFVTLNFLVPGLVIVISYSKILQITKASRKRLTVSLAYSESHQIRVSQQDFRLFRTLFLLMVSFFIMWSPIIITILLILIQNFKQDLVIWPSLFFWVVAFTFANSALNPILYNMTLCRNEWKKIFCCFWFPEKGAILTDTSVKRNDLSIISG

T7 sequence (P43220 24-463): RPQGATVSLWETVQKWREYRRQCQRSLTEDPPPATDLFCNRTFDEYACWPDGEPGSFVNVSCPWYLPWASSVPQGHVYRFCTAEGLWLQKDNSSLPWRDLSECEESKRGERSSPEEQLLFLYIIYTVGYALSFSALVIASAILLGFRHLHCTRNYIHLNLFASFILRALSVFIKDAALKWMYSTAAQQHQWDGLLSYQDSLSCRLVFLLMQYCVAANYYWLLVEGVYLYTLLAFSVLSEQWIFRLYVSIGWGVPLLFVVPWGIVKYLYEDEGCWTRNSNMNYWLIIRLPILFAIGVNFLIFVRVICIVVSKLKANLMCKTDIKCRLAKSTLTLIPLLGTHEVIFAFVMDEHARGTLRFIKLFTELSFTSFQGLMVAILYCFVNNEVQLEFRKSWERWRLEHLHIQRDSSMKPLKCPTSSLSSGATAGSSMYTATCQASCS
T8 sequence (P49019 whole entry): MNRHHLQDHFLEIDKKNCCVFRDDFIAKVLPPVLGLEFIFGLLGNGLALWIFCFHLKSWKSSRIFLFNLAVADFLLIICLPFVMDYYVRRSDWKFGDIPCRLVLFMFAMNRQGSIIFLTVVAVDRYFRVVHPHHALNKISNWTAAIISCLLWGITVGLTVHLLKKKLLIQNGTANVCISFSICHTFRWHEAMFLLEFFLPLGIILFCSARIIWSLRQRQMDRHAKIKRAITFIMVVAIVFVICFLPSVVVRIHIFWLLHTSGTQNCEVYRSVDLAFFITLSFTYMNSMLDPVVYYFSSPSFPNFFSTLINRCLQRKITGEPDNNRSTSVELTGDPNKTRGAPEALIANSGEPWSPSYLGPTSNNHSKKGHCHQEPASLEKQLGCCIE
T6 sequence (P35462 whole entry): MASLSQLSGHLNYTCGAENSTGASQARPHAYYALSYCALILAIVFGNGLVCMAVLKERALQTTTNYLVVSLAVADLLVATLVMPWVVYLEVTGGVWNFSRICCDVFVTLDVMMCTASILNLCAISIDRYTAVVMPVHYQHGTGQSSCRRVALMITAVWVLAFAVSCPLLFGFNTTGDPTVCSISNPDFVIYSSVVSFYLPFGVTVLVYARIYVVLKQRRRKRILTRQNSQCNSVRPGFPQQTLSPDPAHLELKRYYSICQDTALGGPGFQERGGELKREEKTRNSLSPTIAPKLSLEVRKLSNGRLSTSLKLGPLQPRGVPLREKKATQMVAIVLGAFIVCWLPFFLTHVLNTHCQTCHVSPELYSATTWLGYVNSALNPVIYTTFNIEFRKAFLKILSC
T3 sequence (P30874 whole entry): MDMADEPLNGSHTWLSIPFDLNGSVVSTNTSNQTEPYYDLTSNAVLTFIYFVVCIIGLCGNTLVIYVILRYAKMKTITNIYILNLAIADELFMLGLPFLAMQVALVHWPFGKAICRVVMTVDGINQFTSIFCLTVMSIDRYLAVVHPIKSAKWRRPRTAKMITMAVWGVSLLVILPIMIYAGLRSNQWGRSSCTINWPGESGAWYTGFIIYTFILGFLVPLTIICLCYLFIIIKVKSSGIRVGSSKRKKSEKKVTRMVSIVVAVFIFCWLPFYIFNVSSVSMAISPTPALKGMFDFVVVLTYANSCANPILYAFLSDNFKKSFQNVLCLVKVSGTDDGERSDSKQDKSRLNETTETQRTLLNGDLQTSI
T2 sequence (P21918 whole entry): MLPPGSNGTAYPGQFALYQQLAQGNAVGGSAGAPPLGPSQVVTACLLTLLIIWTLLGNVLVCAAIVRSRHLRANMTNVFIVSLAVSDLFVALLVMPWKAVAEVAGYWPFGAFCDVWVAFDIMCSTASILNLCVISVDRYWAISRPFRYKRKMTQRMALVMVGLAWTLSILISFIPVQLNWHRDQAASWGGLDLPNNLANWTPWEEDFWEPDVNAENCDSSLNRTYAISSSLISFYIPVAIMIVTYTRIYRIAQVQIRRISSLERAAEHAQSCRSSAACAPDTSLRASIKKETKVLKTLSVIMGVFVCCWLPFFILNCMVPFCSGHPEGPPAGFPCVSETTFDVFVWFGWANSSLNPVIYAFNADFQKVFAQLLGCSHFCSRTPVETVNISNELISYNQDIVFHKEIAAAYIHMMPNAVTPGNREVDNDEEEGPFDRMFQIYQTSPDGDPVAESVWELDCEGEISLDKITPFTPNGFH
T1 sequence (O14842 whole entry): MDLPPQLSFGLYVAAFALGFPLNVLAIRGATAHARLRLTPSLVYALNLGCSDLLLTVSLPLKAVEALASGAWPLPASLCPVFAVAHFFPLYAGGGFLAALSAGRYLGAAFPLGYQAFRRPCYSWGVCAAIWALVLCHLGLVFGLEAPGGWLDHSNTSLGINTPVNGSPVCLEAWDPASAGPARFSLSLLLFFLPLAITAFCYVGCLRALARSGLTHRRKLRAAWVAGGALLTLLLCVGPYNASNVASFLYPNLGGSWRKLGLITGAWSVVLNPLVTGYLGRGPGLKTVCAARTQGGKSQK
T4 sequence (P34972 whole entry): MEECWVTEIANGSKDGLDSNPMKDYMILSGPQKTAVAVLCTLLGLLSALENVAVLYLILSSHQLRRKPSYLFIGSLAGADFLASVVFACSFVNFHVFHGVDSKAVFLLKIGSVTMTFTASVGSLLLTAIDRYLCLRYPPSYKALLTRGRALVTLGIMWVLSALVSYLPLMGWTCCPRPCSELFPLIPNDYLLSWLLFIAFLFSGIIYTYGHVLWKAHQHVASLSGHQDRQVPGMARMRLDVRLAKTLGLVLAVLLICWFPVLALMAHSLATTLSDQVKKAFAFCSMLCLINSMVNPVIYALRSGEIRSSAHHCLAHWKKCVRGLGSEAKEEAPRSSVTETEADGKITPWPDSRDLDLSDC

Row | SMILES | % Agonist Activity (168 GPCRs [1]; FFAR1, 1 uM) [%] | % Antagonist Activity (168 GPCRs [1]; FFAR1, 1 uM) [%] | % Agonist Activity (168 GPCRs [1]; FFAR1, 10 uM) [%] | % Antagonist Activity (168 GPCRs [1]; FFAR1, 10 uM) [%] | % Agonist Activity (168 GPCRs [2]; DRD5, 1 uM) [%] | % Antagonist Activity (168 GPCRs [2]; DRD5, 1 uM) [%] | % Agonist Activity (168 GPCRs [2]; DRD5, 10 uM) [%] | % Antagonist Activity (168 GPCRs [2]; DRD5, 10 uM) [%] | % Agonist Activity (168 GPCRs [3]; Conc 1 uM) [%] | % Antagonist Activity (168 GPCRs [3]; Conc 1 uM) [%] | % Agonist Activity (168 GPCRs [3]; Conc 10 uM) [%] | % Antagonist Activity (168 GPCRs [3]; Conc 10 uM) [%] | % Agonist Activity (168 GPCRs [4]; CNR2, 1 uM) [%] | % Antagonist Activity (168 GPCRs [4]; CNR2, 1 uM) [%] | % Agonist Activity (168 GPCRs [4]; CNR2, 10 uM) [%] | % Antagonist Activity (168 GPCRs [4]; CNR2, 10 uM) [%] | % Agonist Activity (168 GPCRs [5]; 1 uM) [%] | % Antagonist Activity (168 GPCRs [5]; 1 uM) [%] | % Agonist Activity (168 GPCRs [5]; 10 uM) [%] | % Antagonist Activity (168 GPCRs [5]; 10 uM) [%] | other results
1 | CNC(C)C(=O)c1ccc2c(c1)OCO2 (centres unmarked) [methylone] | 1.7 | -7.9 | 4.5 | -13.8 | -0.1 | -5.9 | -0.2 | -2.6 | 0 | -0.4 | 0.7 | -4.2 | 7 | 3.6 | 3.2 | -3.2 | -3.3 | 17.9 | -2.9 | 20.6 | % Agonist Activity (168 GPCRs [6]; DRD3, 1 uM): 2.2%; % Antagonist Activity (168 GPCRs [6]; DRD3, 1 uM): -12%; % Agonist Activity (168 GPCRs [6]; DRD3, 10 uM): 2.3%; % Antagonist Activity (168 GPCRs [6]; DRD3, 10 uM): -17.8%; % Agonist Activity (168 GPCRs [7]; 1 uM): -0.3%; % Antagonist Activity (168 GPCRs [7]; 1 uM): 3.4%; % Agonist Activity (168 GPCRs [7]; 10 uM): -0.1%; % Antagonist Activity (168 GPCRs [7]; 10 uM): -0.9%; % Agonist Activity (168 GPCRs [8]; 1 uM): 1%; % Antagonist Activity (168 GPCRs [8]; 1 uM): -16.5%; % Agonist Activity (168 GPCRs [8]; 10 uM): 0.5%; % Antagonist Activity (168 GPCRs [8]; 10 uM): -20.2%; % Agonist Activity (168 GPCRs [9]; C3AR1, 1 uM): -0.1%; % Antagonist Activity (168 GPCRs [9]; C3AR1, 1 uM): 2.5%; % Agonist Activity (168 GPCRs [9]; C3AR1, 10 uM): 0%; % Antagonist Activity (168 GPCRs [9]; C3AR1, 10 uM): 0.3%; % Agonist Activity (168 GPCRs [10]; GPR120, 1 uM): -5.1%; % Antagonist Activity (168 GPCRs [10]; GPR120, 1 uM): 46.5%; % Agonist Activity (168 GPCRs [10]; GPR120, 10 uM): -5.8%; % Antagonist Activity (168 GPCRs [10]; GPR120, 10 uM): 40.3%
2 | CNC(C)Cc1ccc2c(c1)OCO2 (centres unmarked) [MDMA, 3,4-Methylenedioxy methamphetamine, reference compound] | 3.9 | -5.6 | 7 | -0.4 | 1.7 | 10.8 | 1.4 | 10.5 | 0 | 2.7 | 0.2 | 9.1 | 0.1 | 8.9 | -6.8 | 7.8 | -1.6 | 18.7 | -1.6 | 35.1 | % Agonist Activity (168 GPCRs [6]; DRD3, 1 uM): 7.1%; % Antagonist Activity (168 GPCRs [6]; DRD3, 1 uM): 9.6%; % Agonist Activity (168 GPCRs [6]; DRD3, 10 uM): 7.3%; % Antagonist Activity (168 GPCRs [6]; DRD3, 10 uM): 10.6%; % Agonist Activity (168 GPCRs [7]; 1 uM): -0.4%; % Antagonist Activity (168 GPCRs [7]; 1 uM): 9.5%; % Agonist Activity (168 GPCRs [7]; 10 uM): -0.2%; % Antagonist Activity (168 GPCRs [7]; 10 uM): 12.9%; % Agonist Activity (168 GPCRs [8]; 1 uM): 0.7%; % Antagonist Activity (168 GPCRs [8]; 1 uM): -15.2%; % Agonist Activity (168 GPCRs [8]; 10 uM): 1.4%; % Antagonist Activity (168 GPCRs [8]; 10 uM): -11.4%; % Agonist Activity (168 GPCRs [9]; C3AR1, 1 uM): 0.2%; % Antagonist Activity (168 GPCRs [9]; C3AR1, 1 uM): 12.9%; % Agonist Activity (168 GPCRs [9]; C3AR1, 10 uM): 0.2%; % Antagonist Activity (168 GPCRs [9]; C3AR1, 10 uM): 9.8%; % Agonist Activity (168 GPCRs [10]; GPR120, 1 uM): -3.7%; % Antagonist Activity (168 GPCRs [10]; GPR120, 1 uM): 11.3%; % Agonist Activity (168 GPCRs [10]; GPR120, 10 uM): -4.4%; % Antagonist Activity (168 GPCRs [10]; GPR120, 10 uM): 8.8%
